Measured values taken from publication PMC5458078, “Global mapping of CARM1 substrates defines enzyme specificity and substrate recognition” (Nature Communications, 2017).

Key:
MCF7 CARM1 KO cells = assay: Quantitative MS of ADMA-containing peptides in MCF7 CARM1 KO cells expressing CARM1 28-608 or CARM1 140-608, and in CARM1 KO; type: cell-based, human
MCF7 cells = assay: Quantitative nanoLC-MS/MS (TMT) of ADMA-containing peptides, CARM1 KO vs parental; type: cell-based, human; design: Fold change KO/WT: scale not given here
[1] = CARM1 KO vs wild type MCF7 cells, 3 biological replicates each
[2] = MCF7, CARM1 knockout vs wild type, n = 3 each
[3] = MCF7, CARM1 KO (KO1-KO3) vs wild type (WT1-WT3)
[4] = MCF7 CARM1 knockout vs wild type, 3 biological replicates each, values are on log2 scale
[5] = ADMA-containing peptide, CARM1 knockout (KO) vs wild type (WT) MCF7 cells, 6-plex TMT experiment #1, three biological replicates each, sheet "MCF7"
[6] = ADMA-containing peptide, MCF7, CARM1 knockout (KO1-3) vs wild type (WT1-3), TMT 6-plex experiment #1
[7] = MCF7, CARM1 KO vs WT, three biological replicates each

Substance: SPYTTTrYGSPINTFTVRPGTR
- CARM1 140-608/WT (MCF7 CARM1 KO cells; CARM1 140-608 vs WT, mean of 3 replicates, log2): -0.1037
- KO/WT (MCF7 CARM1 KO cells; KO vs WT, mean of 3 replicates, log2): -2.259

Substance: PVPPPPAPPPPPTFALANTEKPTLNKTEQAGrNALLSDISK
- Fold change KO/WT (MCF7 cells; [1]): -1.049

Substance: CAGFLEPTWLAAPPRLArPPR
- Fold change KO/WT (MCF7 cells; [2]): -1.124

Substance: SYSrGGGDQGYGSGR
- Fold change KO/WT (MCF7 cells; [3]): -0.3099

Substance: AYSSFGGGrGSR
- Fold change KO/WT (MCF7 cells; [2]): -0.1369

Substance: MGTPVPRPPQDMGQIGVRTPLGPrVAAPVGPVGPTPTVLPMGAPVPrPrGPPPPPGDENR
- Fold change KO/WT (MCF7 cells; [3]): -3.578

Substance: TYSEVYPGQQYLQGGQYAPSTAQFAPSPGQPPAPSPSYPGHrLPLQQGMTQSLSVPGPTGLHYKPTR
- Fold change KO/WT (MCF7 cells; [1]): -2.904

Substance: INPGLEYrQHLLLR
- Fold change KO/WT (MCF7 cells; [4]): -1.551

Substance: FEGSPGLrFEGSPGGLrFEGPGGQPVGGLrFEGHR
- Fold change KO/WT (MCF7 cells; [5]): -0.8785

Substance: SSGSPYGGGYGSGGGSGGYGSrRF
- Fold change KO/WT (MCF7 cells; [2]): -0.5008

Substance: INPGLEYrQHLLLrGPPPGSANPPR
- Fold change KO/WT (MCF7 cells; [4]): -0.6044

Substance: AFHDYSAAAAPSPVLGNIPPNDGMPGGPIPPGFFQPFMSPrYAGGPrPPIR
- Fold change KO/WT (MCF7 cells; [6]): -2.246

Substance: GPSGGYrGSGGFQrGGGrGAYGTGYFGQGR
- Fold change KO/WT (MCF7 cells; [2]): 0.2112

Substance: TGALPGPGPLSNPrLGGLPGPGPMSNPrAGGLLGAGPDPR
- Fold change KO/WT (MCF7 cells; [7]): -2.931

Substance: GSGTGIYSNAAPPPVTYQGNLYrPLLrGQAQIPK
- Fold change KO/WT (MCF7 cells; [1]): -4.659

Substance: LSLPPIHTLYQPrFGNSQSFTSK
- Fold change KO/WT (MCF7 cells; [6]): -2.191

Substance: LQHMQQQQPPPrLINFQNHSPKPNGPVLPPHPQQLrYPPNQNIPR
- Fold change KO/WT (MCF7 cells; [6]): -0.9847

Substance: TLLrGGMSLrGQNLLrGGR
- Fold change KO/WT (MCF7 cells; [7]): 0.06328

Substance: TEQAGrNALLSDISK
- Fold change KO/WT (MCF7 cells; [1]): -1.119

Substance: TGALPGPGPLSNPrLGGLPGPGPMSNPrAGGLLGAGPDPrGGGPMGPGSGPNLR
- Fold change KO/WT (MCF7 cells; [7]): -2.513

Substance: SNSGPYrGGYGGGGGYGGSSF
- Fold change KO/WT (MCF7 cells; [2]): -0.1493

Substance: GPQWKRGArGGNLVTGTQr
- Fold change KO/WT (MCF7 cells; [4]): -0.2728

Substance: SLGSVQAPSYGARPVSSAASVYAGAGGSGSrISVSR
- Fold change KO/WT (MCF7 cells; [4]): -1.494

Substance: GTPVrGAITR
- Fold change KO/WT (MCF7 cells; [4]): -0.02001

Substance: GrGTLTrGAFVGATAAPGYIAPGYGTPYGYSTAAPAYGLPKR
- Fold change KO/WT (MCF7 cells; [6]): -0.6705

Substance: MGTPVPrPPQDMGQIGVRTPLGPR
- Fold change KO/WT (MCF7 cells; [3]): -2.466

Substance: QGSIGLYTQNQPLPAGGPRVDPYrPVRLPMQK
- Fold change KO/WT (MCF7 cells; [5]): -1.665

Substance: LDrICEGIRPQIMNGPLHPRPLVALLDGR
- Fold change KO/WT (MCF7 cells; [2]): -0.535

Substance: AAGMTPLYAGQrLPQHGYPGPPQAQPLPrQGVK
- Fold change KO/WT (MCF7 cells; [1]): -1.882

Substance: FLQPrLAPNQPPPPLIrPALAAPRHSARPGPQPPPTLIGTPLEPPAPSL
- Fold change KO/WT (MCF7 cells; [3]): -2.908

Substance: MrPQPYGGTNPYSQQQGPPSGPQQGHGYPGQPYGSQTPQrYPMTMQGR
- Fold change KO/WT (MCF7 cells; [7]): -3.351

Substance: SYrGGGGGGGGWR
- Fold change KO/WT (MCF7 cells; [6]): -0.08168

Substance: QQQQQQQQQQQQLDLLFHQrIQISLWPR
- Fold change KO/WT (MCF7 cells; [2]): -2.494

Substance: QLrMQLQQR
- Fold change KO/WT (MCF7 cells; [5]): -2.307

Substance: LISVQTMQrGNMNCGAFQAHQMR
- Fold change KO/WT (MCF7 cells; [6]): -0.03531

Substance: DLVILLYETALLSSDFGLEGPQTHANr
- Fold change KO/WT (MCF7 cells; [4]): 0.05306

Substance: LLGQRPGPYDrPIGGRGGYYGAGrGSMYDR
- Fold change KO/WT (MCF7 cells; [4]): 0.09272

Substance: TGFTNIPSrYGTNNR
- Fold change KO/WT (MCF7 cells; [3]): -2.195

Substance: AGPrLLLIPVQQGSPTLRPVSNTQLQGHrMVLQPVR
- Fold change KO/WT (MCF7 cells; [5]): -0.6769

Substance: MGTPVPRPPQDMGQIGVrTPLGPrVAAPVGPVGPTPTVLPMGAPVPrPRGPPPPPGDENR
- Fold change KO/WT (MCF7 cells; [3]): -1.953

Substance: EHGAAASErLQLGTPPPLLAArLVPPR
- CARM1 140-608/WT (MCF7 CARM1 KO cells; CARM1 140-608 versus WT, mean of three replicates (log2)): -0.1041
- KO/WT (MCF7 CARM1 KO cells; KO versus WT, mean of three replicates (log2)): -0.4942

Substance: FFHMPrFQHQAPrQLFYK
- Fold change KO/WT (MCF7 cells; [1]): -1.814

Substance: MQLQQrLQGQQFLNQSrQALELK
- Fold change KO/WT (MCF7 cells; [5]): -3.454

Substance: MGTPVPRPPQDMGQIGVrTPLGPR
- CARM1 140-608/WT (MCF7 CARM1 KO cells; CARM1 140-608 vs WT, mean of 3 replicates (log2 scale)): -1.0135
- KO/WT (MCF7 CARM1 KO cells; KO vs WT, mean of 3 replicates (log2 scale)): -2.444

Substance: LTrGQLQHLGTR
- Fold change KO/WT (MCF7 cells; [1]): 0.1695

Substance: SPYTTTRYGSPINTFTVrPGTR
- Fold change KO/WT (MCF7 cells; [7]): -3.3255
